Measurements reported in US20260174677A1, “METHODS OF TREATING INSULIN RESISTANCE AND ASSOCIATED DISORDERS” (The University of Melboune, priority 2022, published 2026).

Test system: CSPG-ECM components (mixed CSPGs, aggrecan, chondroitin 4-sulfate)
Assay: CSPG-ECM binding assay with insulin-FITC in vitro
Protocol: To determine the interaction of insulin with CSPG-ECM components in vitro, flat-bottom 96-well plates were first coated with 10 μg/ml poly-L-lysine overnight, followed by a rinsing with water. A purified CSPGs mix containing neurocan, phosphacan, versican and aggrecan (CC117, Merck Millipore, MA), purified aggrecan ([…], Merck Millipore, MA) or purified chondroitin 4-sulfate ([…], Selleck Chemicals, TX), were coated onto the 96-well plates at a concentration of 10 μg/ml for 4 h at RT, followed by a rinse with water. Insulin-FITC was incubated on plates containing ECM at concentrating ranging from 5 ng/ml-1 mg/ml for 2 h at RT and protected from light. Control wells contained either no ECM, bovine serum albumin (10 μg/ml) or poly-L-lysine alone. Wells were washed 3 times with water and imaged at 495 nm using a SPECTROstar Nano Microplate Reader (BMG Labtech, Germany). To digest CSPG-ECM or to negate CSPG-ECM negative charge. wells were incubated with either chABC (0.5 U/ml) or poly-l-arginine (10 μg/ml, […], Merck Millipore, MA) for 1 h at 37° C. after the ECM coating, washed 3 times with water and then incubated with insulin-FITC.

Substance	binding of insulin-FITC to mixed CSPGs, aggrecan and C4S (2-hours incubation on coated plates)	insulin-ECM interactions (insulin-FITC with CSPG mix) in the presence of the agent (in the presence of poly-arginine)
insulin-FITC: fluorescein isothiocyanate tagged insulin	specific dose-dependent binding	
poly-arginine		significantly reduced
